# Where two headings read alike, the source gives them in different places.
# Experiments:
# K. pneumoniae = test: microbe, parasite or virus in culture; format: cell-based, Klebsiella pneumoniae; details: for MIC: Klebsiella pneumoniae
# E. coli ATCC 25922 [1] = test: microbe, parasite or virus in culture; format: cell-based, Escherichia coli; parameters: MIC, Survanta (5%) replicates: unit not given beside the values; details: for MIC, Survanta (5%) replicates: BMD with 5% Survanta lung surfactant; for MIC: Escherichia coli, E. coli ATCC 25922, n=2 to 6, mode or median
# Procedure, shortened: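 Broth microdilution MIC in Mueller Hinton broth, 12-point 2-fold series from 128 or 64 down to 0.06 or 0.03 μg mL^−1, 5 × 10^5 CFU mL^−1 inoculum. Read visually after 18-20 h at 37 °C without shaking; n ≥ 6. Additional tests in CAMHB, and in MHB with 1% agarose.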
# P. aeruginosa = test: microbe, parasite or virus in culture; format: cell-based, Pseudomonas aeruginosa; parameters: MIC, Survanta (5%) replicates: unit not given beside the values; details: for MIC: Pseudomonas aeruginosa
# A. baumannii ATCC 19636 = test: microbe, parasite or virus in culture; format: cell-based, Acinetobacter baumannii
# E. coli ATCC 25922 [2] = format: cell-based, Escherichia coli; details: E. coli ATCC 25922, FDA control strain; BMD with 5% Survanta lung surfactant; mode, or median where no mode, n=4 to 6; where n=2 differs the higher value
smiles,measurement,setting,value
COc1cc(Cc2cnc(N)nc2N)cc(OC)c1OC [Trimethoprim],"MIC, Serum (50%)",K. pneumoniae,0.5
same,"MIC, Serum (50%) replicates",K. pneumoniae,0.5
same,"MIC, Survanta (5%)",K. pneumoniae,1
same,"MIC, Survanta (5%)","K. pneumoniae; K. pneumoniae ATCC 700603, ESBL, OXA-2/SHV-18, BMD with 5% Survanta lung surfactant, mode, or median where no mode, n=4 to 6, where n=2 differs the higher value",4
same,"MIC, Survanta (5%) replicates","K. pneumoniae; K. pneumoniae ATCC 700603, ESBL, OXA-2/SHV-18, BMD with 5% Survanta lung surfactant, replicate 1",4
same,"MIC, Survanta (5%) replicates","K. pneumoniae; K. pneumoniae ATCC 700603, ESBL, OXA-2/SHV-18, BMD with 5% Survanta lung surfactant, replicate 2",2
same,"MIC, Serum (50%)","K. pneumoniae; K. pneumoniae ATCC 700603, ESBL, OXA-2/SHV-18, BMD with 50% human serum, mode, or median where no mode, n=4 to 6, where n=2 differs the higher value",32
same,"MIC, Serum (50%) replicates","K. pneumoniae; K. pneumoniae ATCC 700603, ESBL, OXA-2/SHV-18, BMD with 50% human serum, replicate 1",32
same,"MIC, Serum (50%) replicates","K. pneumoniae; K. pneumoniae ATCC 700603, ESBL, OXA-2/SHV-18, BMD with 50% human serum, replicate 2",16
same,"MIC, Survanta (5%)","K. pneumoniae; K. pneumoniae BAA-2146, NDM-1, BMD with 5% Survanta lung surfactant, mode, or median where no mode, n=4 to 6, where n=2 differs the higher value",>64
same,"MIC, Survanta (5%) replicates","K. pneumoniae; K. pneumoniae BAA-2146, NDM-1, BMD with 5% Survanta lung surfactant, replicate 1",>64
same,"MIC, Survanta (5%) replicates","K. pneumoniae; K. pneumoniae BAA-2146, NDM-1, BMD with 5% Survanta lung surfactant, replicate 2",>64
same,"MIC, Survanta (5%) replicates","K. pneumoniae; K. pneumoniae BAA-2146, NDM-1, BMD with 5% Survanta lung surfactant, replicate 3",>64
same,"MIC, Survanta (5%) replicates","K. pneumoniae; K. pneumoniae BAA-2146, NDM-1, BMD with 5% Survanta lung surfactant, replicate 4",>64
same,MIC,"K. pneumoniae; ATCC13883, read-out: MIC, Serum (50%)",0.5 µg/mL
same,MIC,"K. pneumoniae; ATCC13883, read-out: MIC, Survanta (5%)",1 µg/mL
same,MIC,"K. pneumoniae; ATCC700603, read-out: MIC, Serum (50%)",32 µg/mL
same,MIC,"K. pneumoniae; ATCC700603, read-out: MIC, Survanta (5%)",4 µg/mL
same,MIC,"K. pneumoniae; BAA2146, read-out: MIC, Survanta (5%)",> 64 µg/mL
same,"MIC, Survanta (5%) replicates","E. coli ATCC 25922 [1]; E. coli ATCC 25922, FDA control strain, replicate 1",1
same,"MIC, Survanta (5%) replicates","E. coli ATCC 25922 [1]; E. coli ATCC 25922, FDA control strain, replicate 2",1
same,"MIC, Survanta (5%) replicates","E. coli ATCC 25922 [1]; E. coli ATCC 25922, FDA control strain, replicate 3",1
same,"MIC, Survanta (5%) replicates","E. coli ATCC 25922 [1]; E. coli ATCC 25922, FDA control strain, replicate 4",1
same,"MIC, Serum (50%)","E. coli ATCC 25922 [1]; E. coli ATCC 25922, FDA control strain, BMD with 50% human serum, mode, or median where no mode, n=4 to 6, where n=2 differs the higher value",4
same,"MIC, Serum (50%) replicates","E. coli ATCC 25922 [1]; E. coli ATCC 25922, FDA control strain, BMD with 50% human serum, replicate 1",4
same,"MIC, Serum (50%) replicates","E. coli ATCC 25922 [1]; E. coli ATCC 25922, FDA control strain, BMD with 50% human serum, replicate 2",2
same,"MIC, Serum (50%) replicates","E. coli ATCC 25922 [1]; E. coli ATCC 25922, FDA control strain, BMD with 50% human serum, replicate 3",4
same,"MIC, Serum (50%) replicates","E. coli ATCC 25922 [1]; E. coli ATCC 25922, FDA control strain, BMD with 50% human serum, replicate 4",4
same,MIC,"E. coli ATCC 25922 [1]; ATCC25922, read-out: MIC, SURVANTA (5%), MHB + 5% (v/v) lung surfactant",1 µg/mL
same,MIC,"E. coli ATCC 25922 [1]; ATCC25922, read-out: MIC, Serum (50%), MHB + 50% (v/v) human serum",4 µg/mL
same,"MIC, Serum (50%)",P. aeruginosa,>64
same,"MIC, Serum (50%) replicates",P. aeruginosa,>64
same,"MIC, Survanta (5%)",P. aeruginosa,>64
same,"MIC, Survanta (5%) replicates",P. aeruginosa,>64
same,"MIC, Survanta (5%)","P. aeruginosa; P. aeruginosa FADDI-070, MDR, PmxR, BMD with 5% Survanta lung surfactant, mode, or median where no mode, n=4 to 6, where n=2 differs the higher value",>64
same,"MIC, Survanta (5%) replicates","P. aeruginosa; P. aeruginosa FADDI-070, MDR, PmxR, BMD with 5% Survanta lung surfactant, replicate 1",>64
same,"MIC, Survanta (5%) replicates","P. aeruginosa; P. aeruginosa FADDI-070, MDR, PmxR, BMD with 5% Survanta lung surfactant, replicate 2",>64
same,"MIC, Survanta (5%) replicates","P. aeruginosa; P. aeruginosa FADDI-070, MDR, PmxR, BMD with 5% Survanta lung surfactant, replicate 3",>64
same,"MIC, Survanta (5%) replicates","P. aeruginosa; P. aeruginosa FADDI-070, MDR, PmxR, BMD with 5% Survanta lung surfactant, replicate 4",>64
same,"MIC, Serum (50%) replicates","P. aeruginosa; P. aeruginosa FADDI-070, MDR, PmxR, BMD with 50% human serum, replicate 1",>64
same,"MIC, Serum (50%) replicates","P. aeruginosa; P. aeruginosa FADDI-070, MDR, PmxR, BMD with 50% human serum, replicate 2",64
same,"MIC, Serum (50%)","P. aeruginosa; P. aeruginosa FADDI-070, MDR, PmxR, BMD with 50% human serum, where n=2 differs the higher value is recorded",≥64
same,MIC,"P. aeruginosa; ATCC27853, read-out: MIC, Serum (50%)",> 64 µg/mL
same,MIC,"P. aeruginosa; ATCC27853, read-out: MIC, Survanta (5%)",> 64 µg/mL
same,MIC,"P. aeruginosa; read-out: MIC, Serum (50%)",≥ 64 µg/mL
same,MIC,"P. aeruginosa; read-out: MIC, Survanta (5%)",> 64 µg/mL
same,"MIC, Survanta (5%)","A. baumannii ATCC 19636; A. baumannii ATCC 19636, type strain, BMD with 5% Survanta lung surfactant, mode, or median where no mode, n=4 to 6, where n=2 differs the higher value",32
same,"MIC, Survanta (5%) replicates","A. baumannii ATCC 19636; A. baumannii ATCC 19636, type strain, BMD with 5% Survanta lung surfactant, replicate 1",>64
same,"MIC, Survanta (5%) replicates","A. baumannii ATCC 19636; A. baumannii ATCC 19636, type strain, BMD with 5% Survanta lung surfactant, replicate 2",>64
same,"MIC, Survanta (5%) replicates","A. baumannii ATCC 19636; A. baumannii ATCC 19636, type strain, BMD with 5% Survanta lung surfactant, replicate 3",16
same,"MIC, Survanta (5%) replicates","A. baumannii ATCC 19636; A. baumannii ATCC 19636, type strain, BMD with 5% Survanta lung surfactant, replicate 4",32
same,MIC,"A. baumannii ATCC 19636; Acinetobacter baumannii, ATCC19636, read-out: MIC, Survanta (5%), A. baumannii ATCC 19636 type strain, n=2 to 6, mode or median",32 µg/mL
same,"MIC, Survanta (5%)",E. coli ATCC 25922 [2],1
